What is called pIC50 is −log10 of the IC50, conventionally taken in molar units.

Structures are written as SMILES. pIC50: −log10 of the molar value. Square brackets hold non-standard residues; d marks the D form. Peptide text beside a SMILES is read from it. * marks the point of attachment. Sta = CC(C)C[C@H](N)[C@@H](O)CC(=O)O; Isovaleryl = CC(C)CC(=O)*

One experiment concerns human plasma renin. Briefly: human plasma renin IC50 determination at pH 7.4. The experiment is classed as biochemical. The following applies: against human plasma renin. Here is the method:
The following method was used for in vitro evaluation of the renin inhibitors of Formula I: The human plasma renin IC50 values for inhibitors of Formula I were determined at pH 7.4 following the procedure described in J. Boger, L.S. Payne, D.S. Perlow, N.S. Lohr, M. Poe, E.H. Blaine, E. H. Elm, T.W. Schorn, B.I. Lamont, T.-Y. Lin, M. Kawai, D.H. Rich and D.F. Veber, J. Med. Chem., 28, 1779 (1985).

For experiment [1], the system named is conscious sodium-deficient Rhesus monkeys. Briefly: intravenous evaluation of renin inhibitors in conscious sodium-deficient Rhesus monkeys (blood pressure lowering). The experiment is classed as in vivo. Conditions: i.v. bolus injection, mean arterial pressure. The source says: The following methods were used for in vivo evaluation of the renin inhibitors of Formua I: Intravenous evaluation of renin inhibitors in conscious sodium-deficient Rhesus monkeys: Rhesus monkeys, male and female, weighing 2.6 - 4.5 Kg, were surgically prepared with chronic arterial and venous catheters and vascular access ports for direct monitoring of mean arterial pressure (MAPI) and heart rate (HR). The animals were maintained on a low sodium diet (1.2 mmol Na/day) plus fruit for a week, and administered LASIX (furosemide) at2.5 mg/Kg, intramuscularly the evening prior to the experiment. The animals had been trained to sit quietly in the chairs with water AD LIBIUM for the duration of the experiment. The inhibitors were administered by bolus injection using 0.5% acetic acid-5% dextrose in water as the vehicle (0.4 ml/Kg), and MAP and HRwere measured. Blood samples were withdrawn at different time intervals beginning at the nadir of hypotensive response. PRA was determined as described above. […] A projected ED50 dose for each inhibitor was calculated using the following formula: ED50 (Test Inhibitor, umoles/Kg) = ED50 (SCRIP) X [IC50 (Test Inhibitor)/IC50 (SCRIP)], where the IC50 values were determined against human plasma renin. […] Percent inhibition of monkey PRA, changes in MAP and HR were calculated and plotted against time. […]

In turn, `CC(C)CC(=O)N[C@@H](Cc1c[nH]cn1)C(=O)N1CCC[C@H]1C(=O)N[C@@H](Cc1ccccc1)C(=O)N[C@@H](Cc1c[nH]cn1)C(=O)N[C@@H](CC(C)C)[C@@H](O)CC(=O)N[C@@H](CC(C)C)C(=O)N[C@@H](Cc1ccccc1)C(N)=O` [SCRIP, Iva-His-Pro-Phe-His-Sta-Leu-Phe-NH2] (Isovaleryl-HPFH[Sta]LF-NH2) had a pIC50 with human plasma renin of 8.43. Moreover, in experiment [1], the “i.v. dose of the standard inhibitor required to lower blood pressure by 50% of the maximal response (ED50)” value was determined as 0.039 µmol/kg.

The record behind these values is patent EP0518675A2, “Cyclic renin inhibitors” (MERCK & CO. INC., priority 1991, dated 1992).
